Experimental data published in ChEMBL document CHEMBL5728812, “Inhibitors of Plasma Kallikrein and uses thereof” (2021).

Molecular target: Plasma kallikrein (Homo sapiens, UniProt P03952)
Experiment: Inhibitory Activity Assay: Plasma Kallikrein: The example compounds were evaluated for inhibition of the human activated kallikrein enzyme in two formats of an assay employing a fluorogenic peptide substrate. In one assay format, the concentrations of reagents were as follows: 20 mM Tris pH 7.5, 1 mM EDTA, 150 mM sodium chloride, 0.1% PEG-400, 0.1% Triton X-100, 500 pM activated kallikrein enzyme, 300 uM Pro-Phe-Arg-7-amido-4-methylcoumarin substrate. Prior to reaction initiation with substrate, enzyme and inhibitors were preincubated for 30 min at room temperature. After initiation with substrate, reactions were incubated for 10 min at room temperature and fluorescence emission at 460 nm from 380 nm excitation measured with a microplate reader. In another assay format, the concentrations of reagents were as follows: 20 mM Tris pH 7.5, 1 mM EDTA, 150 mM sodium chloride, 0.1% PEG-400, 0.1% Triton X-100, 5 pM activated kallikrein enzyme, 300 uM Pro-Phe-Arg-7-amido-4-methylcoumarin substrate. Prior to reaction initiation with substrate, enzyme and inhibitors were preincubated for 30 min at room temperature. After initiation with substrate, reactions were incubated for 18 hr at room temperature and fluorescence emission at 460 nm from 380 nm excitation measured with a microplate reader.

Chain of Plasma kallikrein (P03952 20-390 limits assumed): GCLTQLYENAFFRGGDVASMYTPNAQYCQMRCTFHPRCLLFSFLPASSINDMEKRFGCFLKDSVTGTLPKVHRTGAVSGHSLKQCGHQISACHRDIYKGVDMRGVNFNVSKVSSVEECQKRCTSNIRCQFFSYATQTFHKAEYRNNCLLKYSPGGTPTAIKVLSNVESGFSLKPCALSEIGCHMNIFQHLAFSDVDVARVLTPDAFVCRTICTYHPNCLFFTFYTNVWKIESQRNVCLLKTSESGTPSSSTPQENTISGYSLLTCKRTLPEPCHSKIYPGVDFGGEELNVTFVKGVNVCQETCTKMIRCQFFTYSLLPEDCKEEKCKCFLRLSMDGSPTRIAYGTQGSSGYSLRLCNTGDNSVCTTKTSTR
Chain of Plasma kallikrein (P03952 391-638 limits assumed): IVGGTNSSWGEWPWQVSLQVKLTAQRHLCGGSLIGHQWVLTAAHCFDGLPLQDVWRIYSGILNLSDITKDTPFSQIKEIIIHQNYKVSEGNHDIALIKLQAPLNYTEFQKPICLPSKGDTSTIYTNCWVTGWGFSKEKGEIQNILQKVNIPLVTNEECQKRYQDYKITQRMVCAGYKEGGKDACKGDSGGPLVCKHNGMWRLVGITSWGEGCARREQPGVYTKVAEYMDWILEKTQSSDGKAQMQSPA

- EC50: < 100 nM
SMILES: CNC(=O)[C@H](CCCCNC(=N)N)NC(=O)c1csc([C@@H]2C[C@@H](N)CN2C(=O)c2ccc3cc(Cl)ccc3n2)n1
